Patent US11708338B2, “Substituted phenyl sulfonyl phenyl triazole thiones and uses thereof” (Neuropore Therapies, Inc., priority 2017, dated 2023)

Tests used:
Format in all cases: in vivo, mouse
[1] = test system: dopaminergic (DAT) transporter; assay: DAT IHC immunolabeling in striatum, striatal-to-reference ratio; conditions: L61 ASYN transgenic mice, 3 months
Method: The harvested brain tissues were drop fixed using 4% PFA and sectioned on a vibratome, and representative sections corresponding to the striatum and cerebellum were assessed for DAT with IHC staining.
Immunolabeling studies of DAT were conducted using a monoclonal antibody (1:500; MAB369; Millipore, Temecula, Calif.) and a biotinylated secondary antibody (1:100; BA4000, Vector Labs) and analysis was performed on blindcoded sections from Line 61 transgenic and non-transgenic mice. Slides were digitized using a high resolution automated Nanozoomer slide scanner (Hamamatsu Corp.). Digitized images were analyzed using Halo (Indica Labs) image analysis software package by placing an ROI frame within the dorsal striatum and another within a separate reference brain region (for normalization of DAT signal). A thresholding algorithm was defined and then applied equally to all images to determine the average optical density of DAT immunolabeling across each ROI The results of the analysis were then exported for graphing and statistical analysis and the striatal DAT:cortical (reference region) DAT optical densities ratio was calculated for each subject.
Quantification of DAT density was carried out by calculating the immunofluorescence in striatal sections against that in cerebellum sections to derive a striatal-to-reference ratio.

L61 ASYN transgenic mice = assay: Grip strength evaluation (motor performance), 3 month administration study; conditions: 5 mg/kg and 10 mg/kg i.p. daily, after 70 days of treatment
Method: The effects of Compound 1 on the motor performance deficits (grip strength) and a marker of neuroinflammation (Translocator Protein (18 kDa)) were assessed in both L61 ASYN transgenic and non-transgenic mice in a 3 month administration study.
(§1) Compound 1 was injected into L61 ASYN transgenic mice and non-transgenic control mice (i.p., once daily) at doses of 5 and 10 mg/kg for 3 months (79 total mice, n=14-17 mice per treatment group). The vehicle control consisted of a solution containing 5% DMSO+20% Cremphor EL+0.9% normal saline. The baseline grip strength of mice was evaluated prior to starting treatments for the 3 month study, and then re-evaluated following 70 days of treatment with vehicle or Compound 1 (5 or 10 mg/kg, i.p. daily).
At baseline, there was a statistically significant grip strength deficit in transgenic mice compared to non-transgenic mice. Treatment with Compound 1 (5 & 10 mg/kg) improved L61 ASYN transgenic grip strength deficits.

[2] = test system: Translocator Protein (18 kDa) (TSPO); assay: TSPO immunofluorescence in cortex of L61 mice, 3 month administration study; conditions: L61 ASYN transgenic mice, 5 and 10 mg/kg i.p. daily, 3 months
Method: as §1
Neuroinflammation is associated with increased expression of the 18-kDa translocator protein (TSPO), which is a marker for inflammation and is present on the mitochondria of activated microglia, astroglia and macrophages (Crawshaw and Robertson 2017). The effects of Compound 1 on the levels of Translocator Protein (18 kDa) (TSPO) were assessed in both L61 ASYN transgenic and non-transgenic mice in the aforementioned 3 month administration study. At the end of the study, the mice were sacrificed, and immunofluorescence (IF) detection of TSPO were assessed in the harvested brain tissues.
FIGS. 15A-B show the levels of TSPO immunolabeling in representative cross-sections of the cortex of the mice. […]

amyloid beta = assay: Amyloid beta (6E10) immunostaining in brain of L41 APP transgenic mice; conditions: 5 mg/kg daily i.p.
Method: As described earlier, Line 41 transgenic mice express high levels of the mutant hAPP751 and develop mature plaques in the cortex, hippocampus, thalamus and olfactory region of mouse brain. The effects of Compound 1 on Amyloid beta plaque formation were assessed in both L41 APP transgenic and non-transgenic mice in a 1 month administration study. After 30 days, the mice were sacrificed, and immunofluorescence (IF) detection of amyloid beta were assessed in the harvested brain tissues.
The harvested brain tissues were drop fixed using 4% PFA and sectioned on a vibratome, and representative sections containing the neuropil of cortex, hippocampus and striatum were assessed for amyloid beta with standard IHC staining.
On approximately day 30, all subjects were euthanized within 2 hours of the last treatment and brain and other samples were collected. Brains were removed and divided sagitally. […]
Prepared slides were imaged at 40× using a high-resolution Hamamatsu Nanozoomer™ scanner located in the Microscopy Core in the UCSD Department of Neurosciences. Digital images were then transferred to Neuropore and analyzed using the Halo® imaging software package (Indica Labs, Corrales, N. Mex.). […] Images were evaluated for specimen and imaging problems and any issues were noted prior to unblinding of samples and statistical analyses.

O=S(=O)(c1ccc(-n2cn[nH]c2=S)cc1)c1ccc(Cl)c(C(F)(F)F)c1 [Compound 1, 4-(4-((4-chloro-3-(trifluoromethyl)phenyl)sulfonyl)phenyl)-2,4-dihydro-3H-1,2,4-triazole-3-thione]
striatal levels of DAT, staining intensity in representative images (FIG. 18) vs vehicle-treated L61 mice ([1]; 5 mg/kg or 10 mg/kg daily): restoring striatal levels of DAT
DAT striatal-to-reference ratio, quantification (FIG. 19) ([1]; 10 mg/kg dose): reduces the GFAP levels in a statistically significant manner
grip strength vs vehicle-treated transgenic mice (L61 ASYN transgenic mice): higher grip strengths than vehicle-treated transgenic mice in a statistically significant manner
levels of TSPO in cortex vs vehicle control [2]: significantly decreased
amyloid beta level vs vehicle-treated Line 41 mice, quantification (amyloid beta): reduces the amyloid beta level in a statistically significant manner
